Data published in patent publication US8865724B2, “Preparation of 2-methyl-4-amino-5(substituted-1H-1,2,3-triazolyl)methylpyrimidine derivatives and microbicidal activity thereof” (Central China Normal University, priority 2011, dated 2014).
Like-named read-outs stand apart in the source and are kept apart here.

Assays:
[1] = tested on: Cucumber Angular Leaf Spot; assay: Microbicidal activity on cucumber seedlings, spray then inoculation (Embodiment 7); settings: for pest or weed control at 500 µg/g: Cucumis sativus, read-out: Cucumber bacterial spot (%), controlling effect; for Cucumber bacterial spot (%), controlling effect: testing concentration of 500 μg/g, cucumber seedling
Procedure: Testing Materials: Strain: Cucumber Angular Leaf Spot
Testing method: a cucumber seedling at the stage of 2 seminal leaves was inoculated by spraying a suspension of Cucumber Angular Leaf Spot. Testing agents and control agents were sprayed uniformly on the seminal leaves at A.M. of a sunshine day respectively. After 2 hours, the leaves were inoculated with pathogenic microbes and cultured at humidity. After full occurrence of disease in control group, state of illness was examined according to grading standards, and the controlling effects were measured.

[2] = tested on: Rice Sheath Blight Disease; assay: Microbicidal activity, spray then strip inoculation (Embodiment 8); settings: for pest or weed control at 500 µg/g: Oryza sativa, read-out: Rice Sheath Blight Disease Average inhibition rate (%)
Procedure: (§1) (Pseudomonassyringaepv. tomato (Okabe) Young, Dye & Wilkie), Cucumber Angular Leaf Spot, Rice Sheath Blight Disease (Rhizoctonia solani), Corynespora Leaf Spot of Cucumber (Corynespora cassiicola), Downy Mildew of Cucumber (Cucumber Downy Mildew).
(§2) Testing agents and control agents were sprayed uniformly at A.M. of a sunshine day on the cucumber seminal leaves. After 2 hours, the leaves were inoculated with pathogenic microbes and cultured at humidity. […] Strip inoculation is used for Rice Sheath Blight Disease and phytophthora blight of pepper, in which the liquor was sprayed and after 2 hours, inoculation of strips was performed followed by culturing at humidity. After full occurrence of diseases in the control group, state of illness was examined according to grading standards, and a disease index and inhibition rate were calculated.

gray mold of cucumber = assay: Spawn growth rate on agar plates (Embodiment 9); format: cell-based, Botrytis cinerea; settings: 48 h; for inhibition of growth at 100 µg/g: testing concentration of 100 μg/g, read-out: Gray mold of cucumber Average inhibition rate (%); for inhibition of growth at 12.5 µg/g: Concentration 12.5 μg/g; for inhibition of growth at 12.5 µg/g / inhibition of growth at 25 µg/g / inhibition of growth at 50 µg/g: Table 8; for inhibition of growth at 25 µg/g: Concentration 25 μg/g; for inhibition of growth at 50 µg/g: Concentration 50 μg/g
wheat scab = assay: microbe, parasite or virus in culture; format: cell-based, Gibberella zeae; settings: 48 h, read-out: Wheat scab Average inhibition rate (%)
[3] = tested on: Cucumber Angular Leaf Spot; assay: Microbicidal activity on cucumber seedlings, spray then inoculation (Embodiment 8); settings: for pest or weed control at 500 µg/g: Cucumis sativus, read-out: Cucumber Angular Leaf Spot Average inhibition rate (%); for Cucumber Angular Leaf Spot Average inhibition rate (%): testing concentration of 500 μg/g
Procedure: as §1, §2

anthracnose of cucumber = assay: Spawn growth rate on agar plates (Embodiment 9); format: cell-based, GloeosporiumorbiculareArs; settings: 48 h; testing concentration of 100 μg/g; Table 5
tobacco brown spot = assay: microbe, parasite or virus in culture; format: cell-based, Alternaria alternate (Fries) Keissler; settings: 48 h, testing concentration of 100 μg/g; Table 4; read-out: Tobacco brown spot Average inhibition rate (%)
early blight of tomato = assay: Spawn growth rate on agar plates (Embodiment 9); format: cell-based, Alternaria solania; settings: 48 h, testing concentration of 100 μg/g; Table 6
[4] = tested on: Rice Sheath Blight Disease (sheath and culm blight of rice); assay: Spawn growth rate on agar plates (Embodiment 9); format: cell-based, Rhizoctonia solani; settings: 48 h; for inhibition of growth at 12.5 µg/g: Concentration 12.5 μg/g; for inhibition of growth at 12.5 µg/g / inhibition of growth at 25 µg/g / inhibition of growth at 50 µg/g: Table 8; for inhibition of growth at 25 µg/g: Concentration 25 μg/g; for inhibition of growth at 50 µg/g: Concentration 50 μg/g; for inhibition of growth at 100 µg/g: testing concentration of 100 μg/g, Table 6, read-out: Sheath and culm blight of rice Average inhibition rate (%)
[5] = tested on: Corynespora Leaf Spot of Cucumber; assay: Microbicidal activity on cucumber seedlings, spray then spore inoculation (Embodiment 8); settings: testing concentration of 500 μg/g
Procedure: as §1, §2

Downy Mildew of Cucumber = assay: as above; settings: testing concentration of 500 μg/g
Procedure: as §1, §2

Which pest or weed control at 500 µg/g [1] does the source give for `Cc1ncc(Cn2cc(COC(=O)c3ccc(F)cc3)nn2)c(N)n1` [Compound 34] here?
Its pest or weed control at 500 µg/g is 60%.

What about the pest or weed control at 500 µg/g [2] of the same compound?
Its pest or weed control at 500 µg/g is 40%.

What about the inhibition of growth at 100 µg/g (gray mold of cucumber; Table 4) of the same compound?
The inhibition of growth at 100 µg/g was 63%.

What about the melting point of the same compound?
The melting point was 198 to 199 °C.

And the inhibition of growth at 100 µg/g (wheat scab)?
The inhibition of growth at 100 µg/g was 51%.

For `Cc1ncc(Cn2cc(COC(=O)c3cc([N+](=O)[O-])cc([N+](=O)[O-])c3)nn2)c(N)n1` [Compound 35], which pest or weed control at 500 µg/g [1] is on record?
Its pest or weed control at 500 µg/g is 45%.

What about the pest or weed control at 500 µg/g [3] of the same compound?
The pest or weed control at 500 µg/g was 80%.

What about the inhibition of growth at 100 µg/g (anthracnose of cucumber) of the same compound?
The inhibition of growth at 100 µg/g was 50%.

And the pest or weed control at 500 µg/g [2]?
The pest or weed control at 500 µg/g was 50%.

What about the inhibition of growth at 100 µg/g (gray mold of cucumber; Table 4) of the same compound?
The inhibition of growth at 100 µg/g was 49%.

And the melting point?
The melting point was 142 to 143 °C.

And the inhibition of growth at 100 µg/g (tobacco brown spot)?
The inhibition of growth at 100 µg/g was 75%.

Which pest or weed control at 500 µg/g [1] does the source give for `Cc1ncc(Cn2cc(COC(=O)c3ccccc3Cl)nn2)c(N)n1` [Compound 36] here?
The pest or weed control at 500 µg/g was 60%.

What about the pest or weed control at 500 µg/g [3] of the same compound?
Its pest or weed control at 500 µg/g is 60%.

And the pest or weed control at 500 µg/g [2]?
Its pest or weed control at 500 µg/g is 45%.

And the inhibition of growth at 100 µg/g (gray mold of cucumber; Table 4)?
Its inhibition of growth at 100 µg/g is 61%.

And the melting point?
Its melting point is 85 to 87 °C.

With `Cc1ncc(Cn2cc(COC(=O)c3ccccc3F)nn2)c(N)n1` [Compound 37] as the compound, how does the pest or weed control at 500 µg/g [1] read?
The pest or weed control at 500 µg/g was 70%.

What about the pest or weed control at 500 µg/g [3] of the same compound?
The pest or weed control at 500 µg/g was 37%.

What about the pest or weed control at 500 µg/g [2] of the same compound?
The pest or weed control at 500 µg/g was 50%.

And the inhibition of growth at 100 µg/g (gray mold of cucumber; Table 4)?
The inhibition of growth at 100 µg/g was 98%.

And the melting point?
The melting point was 124 to 125 °C.

What about the inhibition of growth at 100 µg/g (wheat scab) of the same compound?
The inhibition of growth at 100 µg/g was 51%.

What does the source list for `Cc1ccc(C(=O)OCc2cn(Cc3cnc(C)nc3N)nn2)cc1` [Compound 38]?
pest or weed control at 500 µg/g [1]: 60%; pest or weed control at 500 µg/g [3]: 40%; inhibition of growth at 100 µg/g (anthracnose of cucumber): 54%; pest or weed control at 500 µg/g [2]: 50%; inhibition of growth at 100 µg/g (gray mold of cucumber; Table 4): 61%; melting point: 202 to 203 °C; inhibition of growth at 100 µg/g (wheat scab): 56%

Which pest or weed control at 500 µg/g [1] does the source give for `Cc1ncc(Cn2cc(COC(=O)c3cccc(Cl)c3)nn2)c(N)n1` [Compound 39] here?
The pest or weed control at 500 µg/g was 60%.

And the pest or weed control at 500 µg/g [3]?
The pest or weed control at 500 µg/g was 10%.

And the inhibition of growth at 100 µg/g (anthracnose of cucumber)?
The inhibition of growth at 100 µg/g was 52%.

What about the pest or weed control at 500 µg/g [2] of the same compound?
Its pest or weed control at 500 µg/g is 60%.

And the inhibition of growth at 100 µg/g (gray mold of cucumber; Table 4)?
The inhibition of growth at 100 µg/g was 84%.

What about the melting point of the same compound?
The melting point was 165 to 166 °C.

What about the inhibition of growth at 100 µg/g (tobacco brown spot) of the same compound?
The inhibition of growth at 100 µg/g was 50%.

For `Cc1ncc(Cn2nnc(COc3ccc(F)cc3)c2I)c(N)n1` [Compound 82], which inhibition of growth at 100 µg/g (early blight of tomato) is on record?
The inhibition of growth at 100 µg/g was 70%.

What about the inhibition of growth at 12.5 µg/g (gray mold of cucumber) of the same compound?
The inhibition of growth at 12.5 µg/g was 56%.

What about the inhibition of growth at 25 µg/g (gray mold of cucumber) of the same compound?
The inhibition of growth at 25 µg/g was 97%.

And the inhibition of growth at 50 µg/g (gray mold of cucumber)?
Its inhibition of growth at 50 µg/g is 99%.

And the inhibition of growth at 100 µg/g (gray mold of cucumber; Table 6)?
Its inhibition of growth at 100 µg/g is 96%.

What about the melting point of the same compound?
The melting point was 160 to 162 °C.

And the inhibition of growth at 100 µg/g (wheat scab)?
Its inhibition of growth at 100 µg/g is 48%.

What about the inhibition of growth at 12.5 µg/g [4] of the same compound?
The inhibition of growth at 12.5 µg/g was 63%.

What about the inhibition of growth at 25 µg/g [4] of the same compound?
Its inhibition of growth at 25 µg/g is 90%.

And the inhibition of growth at 50 µg/g [4]?
Its inhibition of growth at 50 µg/g is 100%.

What about the inhibition of growth at 100 µg/g [4] of the same compound?
The inhibition of growth at 100 µg/g was 96%.

For `Cc1ncc(Cn2nnc(COc3ccc(Br)cc3)c2I)c(N)n1` [Compound 84], which inhibition of growth at 100 µg/g (early blight of tomato) is on record?
The inhibition of growth at 100 µg/g was 58%.

What about the inhibition of growth at 12.5 µg/g (gray mold of cucumber) of the same compound?
The inhibition of growth at 12.5 µg/g was 66%.

What about the inhibition of growth at 25 µg/g (gray mold of cucumber) of the same compound?
Its inhibition of growth at 25 µg/g is 90%.

And the inhibition of growth at 50 µg/g (gray mold of cucumber)?
The inhibition of growth at 50 µg/g was 94%.

What about the inhibition of growth at 100 µg/g (gray mold of cucumber; Table 6) of the same compound?
The inhibition of growth at 100 µg/g was 93%.

What about the melting point of the same compound?
The melting point was 138 to 140 °C.

What about the inhibition of growth at 100 µg/g (wheat scab) of the same compound?
The inhibition of growth at 100 µg/g was 62%.

And the inhibition of growth at 12.5 µg/g [4]?
Its inhibition of growth at 12.5 µg/g is 73%.

And the inhibition of growth at 25 µg/g [4]?
Its inhibition of growth at 25 µg/g is 95%.

What about the inhibition of growth at 50 µg/g [4] of the same compound?
Its inhibition of growth at 50 µg/g is 97%.

And the inhibition of growth at 100 µg/g [4]?
Its inhibition of growth at 100 µg/g is 98%.

Which inhibition of growth at 100 µg/g (early blight of tomato) does the source give for `Cc1ncc(Cn2nnc(COc3ccccc3Cl)c2I)c(N)n1` [Compound 86] here?
Its inhibition of growth at 100 µg/g is 60%.

What about the inhibition of growth at 12.5 µg/g (gray mold of cucumber) of the same compound?
Its inhibition of growth at 12.5 µg/g is 40%.

And the inhibition of growth at 25 µg/g (gray mold of cucumber)?
The inhibition of growth at 25 µg/g was 76%.

What about the inhibition of growth at 50 µg/g (gray mold of cucumber) of the same compound?
The inhibition of growth at 50 µg/g was 97%.

And the inhibition of growth at 100 µg/g (gray mold of cucumber; Table 6)?
The inhibition of growth at 100 µg/g was 100%.

What about the melting point of the same compound?
Its melting point is 168 to 170 °C.

And the inhibition of growth at 100 µg/g (wheat scab)?
Its inhibition of growth at 100 µg/g is 62%.

What about the inhibition of growth at 12.5 µg/g [4] of the same compound?
The inhibition of growth at 12.5 µg/g was 37%.

What about the inhibition of growth at 25 µg/g [4] of the same compound?
The inhibition of growth at 25 µg/g was 74%.

What about the inhibition of growth at 50 µg/g [4] of the same compound?
The inhibition of growth at 50 µg/g was 98%.

And the inhibition of growth at 100 µg/g [4]?
The inhibition of growth at 100 µg/g was 99%.

Which results are given for `Nc1nnc([S-])s1.Nc1nnc([S-])s1.[Cu+2]` [Thiodiazole-copper, reference compound]?
Cucumber bacterial spot (%), controlling effect [1]: 65.89%; Cucumber Angular Leaf Spot Average inhibition rate (%) [3]: 66%

What does the source list for Zhongshengmycin [reference compound]?
Cucumber bacterial spot (%), controlling effect [1]: 70.69%; Cucumber Angular Leaf Spot Average inhibition rate (%) [3]: 70%; Rice Sheath Blight Disease Average inhibition rate (%) ([2]; testing concentration of 500 μg/g): 50%; Corynespora Leaf Spot of Cucumber Average inhibition rate (%) [5]: 50%; Downy Mildew of Cucumber Average inhibition rate (%) (Downy Mildew of Cucumber): 40%
